Patent US8802866B2, “Pyridinylimidazolone derivatives for the inhibition of PI3 kinases” (Merck Patent GmbH, priority 2009, dated 2014)

Tests used:
[1] = biological target: T1, mTOR (Homo sapiens, UniProt P42345); assay: Biochemical mTOR assay (Millipore mTOR assay kit)
T1 construct: purchased Millipore 14-770
Description: The biochemical mTOR assay was carried out by the method described in the Millipore mTOR assay kit (catalogue number 14-770).

[2] = biological target: PI3Kalpha (Homo sapiens, UniProt P42336); assay: Biochemical PI3Kalpha assay (neomycin SPA, lipid phosphorylation); conditions: human recombinant GST-PI3K
PI3Kalpha, sequence (P42336 whole entry): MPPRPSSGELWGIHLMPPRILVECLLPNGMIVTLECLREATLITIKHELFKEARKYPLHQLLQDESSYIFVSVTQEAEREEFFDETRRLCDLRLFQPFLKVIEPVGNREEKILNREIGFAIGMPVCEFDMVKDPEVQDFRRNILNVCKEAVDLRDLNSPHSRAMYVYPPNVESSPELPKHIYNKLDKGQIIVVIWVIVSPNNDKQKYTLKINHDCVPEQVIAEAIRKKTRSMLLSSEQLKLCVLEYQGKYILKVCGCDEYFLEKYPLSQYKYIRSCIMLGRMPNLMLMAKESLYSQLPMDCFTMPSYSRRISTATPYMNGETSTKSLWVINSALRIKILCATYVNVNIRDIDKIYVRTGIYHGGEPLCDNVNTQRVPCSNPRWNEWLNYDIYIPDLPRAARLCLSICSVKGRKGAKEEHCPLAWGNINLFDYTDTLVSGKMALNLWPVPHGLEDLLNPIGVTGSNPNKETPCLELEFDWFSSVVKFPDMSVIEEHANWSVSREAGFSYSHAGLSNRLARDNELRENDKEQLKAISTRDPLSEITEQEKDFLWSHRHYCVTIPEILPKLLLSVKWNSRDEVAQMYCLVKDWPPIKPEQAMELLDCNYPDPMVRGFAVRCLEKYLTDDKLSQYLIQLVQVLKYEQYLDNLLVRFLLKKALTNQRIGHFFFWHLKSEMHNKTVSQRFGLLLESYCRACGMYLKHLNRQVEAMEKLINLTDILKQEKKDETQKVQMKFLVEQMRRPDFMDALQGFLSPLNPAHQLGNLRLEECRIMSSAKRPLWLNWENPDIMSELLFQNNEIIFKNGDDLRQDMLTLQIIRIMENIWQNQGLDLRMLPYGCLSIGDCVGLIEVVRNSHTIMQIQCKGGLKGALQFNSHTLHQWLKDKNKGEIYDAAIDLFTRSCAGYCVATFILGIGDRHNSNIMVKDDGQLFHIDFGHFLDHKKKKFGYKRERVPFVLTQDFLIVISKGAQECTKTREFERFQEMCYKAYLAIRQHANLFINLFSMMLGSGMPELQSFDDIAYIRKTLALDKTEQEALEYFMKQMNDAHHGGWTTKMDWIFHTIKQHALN
PI3Kalpha, sequence (P27986 whole entry partner): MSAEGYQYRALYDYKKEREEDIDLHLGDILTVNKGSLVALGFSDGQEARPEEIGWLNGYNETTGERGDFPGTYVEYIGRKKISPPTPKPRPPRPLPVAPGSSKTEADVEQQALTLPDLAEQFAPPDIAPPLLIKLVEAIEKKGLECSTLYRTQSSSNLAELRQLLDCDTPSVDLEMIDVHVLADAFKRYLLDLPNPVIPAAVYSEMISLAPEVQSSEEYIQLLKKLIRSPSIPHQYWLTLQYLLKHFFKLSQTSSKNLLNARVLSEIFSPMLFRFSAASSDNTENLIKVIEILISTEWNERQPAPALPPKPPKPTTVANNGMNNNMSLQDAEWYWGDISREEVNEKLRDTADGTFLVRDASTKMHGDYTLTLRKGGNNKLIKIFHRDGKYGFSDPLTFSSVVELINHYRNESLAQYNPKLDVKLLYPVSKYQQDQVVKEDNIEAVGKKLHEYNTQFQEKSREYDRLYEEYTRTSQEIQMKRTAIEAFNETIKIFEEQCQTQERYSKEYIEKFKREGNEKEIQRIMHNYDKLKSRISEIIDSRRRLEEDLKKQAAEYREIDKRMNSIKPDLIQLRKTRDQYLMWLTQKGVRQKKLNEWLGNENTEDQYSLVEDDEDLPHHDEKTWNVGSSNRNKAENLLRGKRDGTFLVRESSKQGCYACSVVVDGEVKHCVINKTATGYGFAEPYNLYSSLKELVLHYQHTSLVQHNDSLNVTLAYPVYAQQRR
Summary of the method: (§1)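 Recombinant PI3K incubated with lipid substrate and radioactive ATP for 120 min at room temperature with gentle stirring, then stopped with neomycin-coated PVT-SPA beads, ATP 60 mM and EDTA 6.2 mM in PBS. After 60 min bead binding and centrifugation, radioactive Ptdlns(3)P counted by scintillation.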

[3] = biological target: DNA-PK protein complex (Homo sapiens, UniProt P78527); assay: Biochemical DNA-PK assay (FlashPlate)
Summary of the method: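 Streptavidin-coated FlashPlate radiometric kinase assay, stopped with 200 mM EDTA, then wells washed with 0.9% NaCl and bound radioactivity counted. Blank (non-specific reaction) defined with a proprietary kinase inhibitor at 10 μM.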

[4] = biological target: recombinant PI3Kalpha (shortened form of the catalytic subunit) (Homo sapiens, UniProt P42336); assay: BIACORE PI3K binding assay (SPR); conditions: 25° C.
recombinant PI3Kalpha (shortened form of the catalytic subunit), sequence (P42336 151-1068 limits assumed): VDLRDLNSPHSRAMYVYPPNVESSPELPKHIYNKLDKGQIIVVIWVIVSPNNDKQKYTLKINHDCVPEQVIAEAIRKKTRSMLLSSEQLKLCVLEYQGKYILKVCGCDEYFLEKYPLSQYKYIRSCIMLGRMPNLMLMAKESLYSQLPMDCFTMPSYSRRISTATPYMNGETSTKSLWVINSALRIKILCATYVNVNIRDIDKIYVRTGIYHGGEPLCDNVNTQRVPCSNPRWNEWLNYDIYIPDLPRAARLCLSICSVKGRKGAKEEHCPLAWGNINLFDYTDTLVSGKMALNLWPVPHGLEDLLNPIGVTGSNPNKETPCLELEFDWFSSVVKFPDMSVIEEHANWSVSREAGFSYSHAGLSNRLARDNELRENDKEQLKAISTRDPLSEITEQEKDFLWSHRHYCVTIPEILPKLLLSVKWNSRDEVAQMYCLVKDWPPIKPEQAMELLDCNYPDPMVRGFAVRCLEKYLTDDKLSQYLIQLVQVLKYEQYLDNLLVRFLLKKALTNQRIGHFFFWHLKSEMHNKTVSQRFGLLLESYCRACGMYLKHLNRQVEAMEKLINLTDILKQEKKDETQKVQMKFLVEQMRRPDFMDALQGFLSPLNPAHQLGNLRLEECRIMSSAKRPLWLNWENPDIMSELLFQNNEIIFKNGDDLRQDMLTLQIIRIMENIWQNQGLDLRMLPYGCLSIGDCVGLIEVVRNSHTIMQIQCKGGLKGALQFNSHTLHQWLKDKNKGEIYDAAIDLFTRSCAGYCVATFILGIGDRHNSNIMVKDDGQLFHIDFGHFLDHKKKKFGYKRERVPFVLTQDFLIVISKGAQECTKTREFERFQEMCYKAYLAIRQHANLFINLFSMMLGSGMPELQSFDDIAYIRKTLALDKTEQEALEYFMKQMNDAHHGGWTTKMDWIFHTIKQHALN
Summary of the method: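 Contact time was 180 s and dissociation 240 s, in HEPES pH 7.40 buffer with 2% DMSO. Solvent-corrected, double-referenced data were fitted to a 1:1 model with mass transport.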

[5] = biological target: PI3Kbeta (Homo sapiens, UniProt P42338); assay: Biochemical PI3Kbeta assay (neomycin SPA, lipid phosphorylation); conditions: human recombinant GST-PI3K
PI3Kbeta, sequence (P42338 whole entry): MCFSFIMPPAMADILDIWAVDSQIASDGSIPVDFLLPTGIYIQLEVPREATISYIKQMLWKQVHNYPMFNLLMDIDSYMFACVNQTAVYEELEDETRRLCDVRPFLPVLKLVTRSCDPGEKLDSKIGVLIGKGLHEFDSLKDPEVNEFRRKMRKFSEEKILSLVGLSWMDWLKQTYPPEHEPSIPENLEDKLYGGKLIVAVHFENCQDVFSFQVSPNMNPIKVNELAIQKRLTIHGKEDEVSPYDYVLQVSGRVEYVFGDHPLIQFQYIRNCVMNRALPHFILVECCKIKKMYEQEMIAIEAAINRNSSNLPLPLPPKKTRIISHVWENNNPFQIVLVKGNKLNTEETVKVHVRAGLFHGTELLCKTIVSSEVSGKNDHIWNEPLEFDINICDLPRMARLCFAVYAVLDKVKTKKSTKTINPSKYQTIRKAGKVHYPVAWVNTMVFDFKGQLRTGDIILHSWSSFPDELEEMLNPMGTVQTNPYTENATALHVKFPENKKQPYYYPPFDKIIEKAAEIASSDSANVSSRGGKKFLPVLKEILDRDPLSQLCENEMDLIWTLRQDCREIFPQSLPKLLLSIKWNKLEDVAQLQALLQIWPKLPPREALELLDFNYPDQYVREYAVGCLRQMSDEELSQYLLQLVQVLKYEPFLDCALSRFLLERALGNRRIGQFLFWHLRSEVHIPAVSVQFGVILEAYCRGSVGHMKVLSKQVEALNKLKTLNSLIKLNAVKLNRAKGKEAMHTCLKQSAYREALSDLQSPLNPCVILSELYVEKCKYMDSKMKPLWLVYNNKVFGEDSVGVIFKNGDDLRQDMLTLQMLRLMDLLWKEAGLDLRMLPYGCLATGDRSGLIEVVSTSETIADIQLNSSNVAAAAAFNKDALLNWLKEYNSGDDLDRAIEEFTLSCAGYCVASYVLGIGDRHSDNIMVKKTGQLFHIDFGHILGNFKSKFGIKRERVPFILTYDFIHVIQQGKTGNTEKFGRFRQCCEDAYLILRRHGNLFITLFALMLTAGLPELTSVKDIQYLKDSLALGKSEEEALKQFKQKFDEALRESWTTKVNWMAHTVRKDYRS
PI3Kbeta, sequence (P27986 whole entry partner): as the sequence (P27986 whole entry partner) above
Summary of the method: as §1

[6] = system: PI3K-dependent phosphorylation of PKB at Serin 473 in PC3 cells; assay: Cellular PI3K assay (P-S473-PKB Luminex assay in PC3 cells); type: cell-based; conditions: Homo sapiens, PC-3, 0.5 h; PC3 cells, 30 min, serum-free, P-S473-PKB; read-out: IC50 (cell)
Summary of the method: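 PC3 cells were exposed for 30 min under serum-free conditions to 7 concentrations of compound, then lysed. Lysates were captured overnight at 4°C on anti-total-PKB Luminex beads and detected with P-S473-PKB antibody plus PE-labelled secondary.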

T1 sequence (P42345 1362-2549 limits assumed): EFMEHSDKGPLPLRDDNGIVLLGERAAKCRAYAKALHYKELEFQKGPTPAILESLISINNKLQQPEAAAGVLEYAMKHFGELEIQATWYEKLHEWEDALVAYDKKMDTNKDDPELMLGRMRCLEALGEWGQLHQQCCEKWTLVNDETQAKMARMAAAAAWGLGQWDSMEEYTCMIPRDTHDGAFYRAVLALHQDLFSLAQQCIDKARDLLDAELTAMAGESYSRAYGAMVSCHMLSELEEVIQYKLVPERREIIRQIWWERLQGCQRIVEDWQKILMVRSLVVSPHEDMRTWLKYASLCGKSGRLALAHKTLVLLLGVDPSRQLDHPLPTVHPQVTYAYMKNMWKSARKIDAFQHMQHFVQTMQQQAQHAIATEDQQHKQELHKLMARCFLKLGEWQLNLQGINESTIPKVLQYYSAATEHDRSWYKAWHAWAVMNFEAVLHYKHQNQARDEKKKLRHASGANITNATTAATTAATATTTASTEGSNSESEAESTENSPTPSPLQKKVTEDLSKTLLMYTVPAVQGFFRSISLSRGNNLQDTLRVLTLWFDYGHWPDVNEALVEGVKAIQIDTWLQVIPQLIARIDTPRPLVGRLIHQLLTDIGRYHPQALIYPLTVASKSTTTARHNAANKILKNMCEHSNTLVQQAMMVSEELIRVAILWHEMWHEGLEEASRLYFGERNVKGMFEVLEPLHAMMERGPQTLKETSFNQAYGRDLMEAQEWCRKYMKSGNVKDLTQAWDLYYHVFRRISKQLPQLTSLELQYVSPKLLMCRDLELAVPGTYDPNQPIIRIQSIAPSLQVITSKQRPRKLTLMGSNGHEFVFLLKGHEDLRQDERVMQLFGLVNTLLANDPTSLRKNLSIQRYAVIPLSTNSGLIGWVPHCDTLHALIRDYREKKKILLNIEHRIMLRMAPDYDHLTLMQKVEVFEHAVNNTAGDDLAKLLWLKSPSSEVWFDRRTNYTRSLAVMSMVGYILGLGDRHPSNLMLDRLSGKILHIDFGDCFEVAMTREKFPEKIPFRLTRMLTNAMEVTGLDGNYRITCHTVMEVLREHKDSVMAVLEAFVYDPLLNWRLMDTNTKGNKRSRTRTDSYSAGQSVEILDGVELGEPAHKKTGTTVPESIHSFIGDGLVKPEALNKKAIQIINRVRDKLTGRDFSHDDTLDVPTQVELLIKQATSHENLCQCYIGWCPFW

| SMILES | IC50 [1] [nM] | IC50 [2] [nM] | IC50 [3] [nM] | Kd [4] [nM] | IC50 [5] [nM] | IC50 [6] [nM] |
| --- | --- | --- | --- | --- | --- | --- |
| COc1cccc(-c2ccnc(-c3cn(C)c(=O)n3-c3ccc(C(C)(C)C#N)cc3)c2)c1 [Example A3, 2-(4-{5-[4-(3-Methoxyphenyl)pyridin-2-yl]-3-methyl-2-oxo-2,3-dihydroimidazol-1-yl}phenyl)-2-methylpropionitrile] | > 10000 | 100 to 10000 | 0.1 to 100 | 100 to 10000 | > 10000 | > 10000 |
| COc1ccc(-c2ccnc(-c3cn(C)c(=O)n3-c3ccc(N4CCNCC4)c(C(F)(F)F)c3)c2)cn1 [Example A20, 4-(6-Methoxy-[3,4′]bipyridinyl-2′-yl)-1-methyl-3-(4-piperazin-1-yl-3-trifluoro-methylphenyl)-1,3-dihydroimidazol-2-one] | 100 to 10000 | 100 to 10000 | 0.1 to 100 | 100 to 10000 | 100 to 10000 | 100 to 10000 |
| Cn1cc(-c2cc(-c3cnc4ccccc4c3)ccn2)n(-c2ccc(C(C)(C)C(=O)O)cc2)c1=O [Example A22, 2-Methyl-2-{4-[3-methyl-2-oxo-5-(4-quinolin-3-ylpyridin-2-yl)-2,3-dihydroimidazol-1-yl]phenyl}propionic acid] | 100 to 10000 | 100 to 10000 | 100 to 10000 | 100 to 10000 | > 10000 | > 10000 |
| Cn1cc(-c2cc(-c3ccnc4[nH]ccc34)ccn2)n(-c2ccc(C(C)(C)C#N)cc2)c1=O [Example A23, 2-Methyl-2-(4-{3-methyl-2-oxo-5-[4-(1H-pyrrolo[2,3-b]pyridin-4-yl)pyridin-2-yl]-2,3-dihydroimidazol-1-yl}phenyl)propionitrile] | 100 to 10000 | 100 to 10000 | 0.1 to 100 | 100 to 10000 | > 10000 | 100 to 10000 |
| CCn1cc(-c2cc(-c3cnc4[nH]ccc4c3)ccn2)n(-c2ccc(C(C)(C)C#N)cc2)c1=O [Example A24, 2-(4-{3-Ethyl-2-oxo-5-[4-(1H-pyrrolo[2,3-b]pyridin-5-yl)pyridin-2-yl]-2,3-dihydro-imidazol-1-yl}phenyl)-2-methylpropionitrile] | 0.1 to 100 | 100 to 10000 | 0.1 to 100 | 0.1 to 100 | 100 to 10000 | 100 to 10000 |
| Cn1cc(-c2cc(-c3cnc4[nH]c(C(F)(F)F)cc4c3)ccn2)n(-c2ccc(C(C)(C)C#N)cc2)c1=O [Example A27, 2-Methyl-2-(4-{3-methyl-2-oxo-5-[4-(2-trifluoromethyl-1H-pyrrolo[2,3-b]pyridin-5-yl)pyridin-2-yl]-2,3-dihydroimidazol-1-yl}phenyl)propionitrile] | 0.1 to 100 | 100 to 10000 | 0.1 to 100 | 100 to 10000 | > 10000 | 100 to 10000 |
| Cn1cc(-c2cc(-c3cnc4[nH]ncc4c3)ccn2)n(-c2ccc(N3CCNCC3)c(C(F)(F)F)c2)c1=O [Example A46, 1-Methyl-3-(4-piperazin-1-yl-3-trifluoromethylphenyl)-4-[4-(1H-pyrazolo[3,4-b]-pyridin-5-yl)pyridin-2-yl]-1,3-dihydroimidazol-2-one] | 100 to 10000 | 0.1 to 100 | 0.1 to 100 | 0.1 to 100 | 100 to 10000 | 100 to 10000 |
| CN1CCN(c2ccc(-n3c(-c4cc(-c5cnc6[nH]ccc6c5)ccn4)cn(C)c3=O)cc2)CC1 [Example A50, 1-Methyl-3-[4-(4-methylpiperazin-1-yl)phenyl]-4-[4-(1H-pyrrolo[2,3-b]pyridin-5-yl)pyridin-2-yl]-1,3-dihydroimidazol-2-one] | 100 to 10000 | 100 to 10000 | 0.1 to 100 | 0.1 to 100 | 100 to 10000 | 100 to 10000 |
| Cn1cc(-c2cc(-c3cnc4[nH]ccc4c3)ccn2)n(-c2ccc(F)c(C(F)(F)F)c2)c1=O [Example A51, 3-(4-Fluoro-3-trifluoromethylphenyl)-1-methyl-4-[4-(1H-pyrrolo[2,3-b]pyridin-5-yl)pyridin-2-yl]-1,3-dihydroimidazol-2-one] | 100 to 10000 | 100 to 10000 | 0.1 to 100 |  | > 10000 | 100 to 10000 |
| Cn1cc(-c2cc(-c3ccc(N)cc3)ccn2)n(-c2ccc(N3CCNCC3)c(C(F)(F)F)c2)c1=O [Example A60, 4-[4-(4-Aminophenyl)pyridin-2-yl]-1-methyl-3-(4-piperazin-1-yl-3-trifluoromethyl-phenyl)-1,3-dihydroimidazol-2-one] | > 10000 | 100 to 10000 | 0.1 to 100 | 100 to 10000 | > 10000 | 100 to 10000 |

Now from value to compound:

| IC50 [1] [nM] | IC50 [2] [nM] | IC50 [3] [nM] | Kd [4] [nM] | IC50 [5] [nM] | IC50 [6] [nM] | SMILES |
| --- | --- | --- | --- | --- | --- | --- |
| 100 to 10000 | 100 to 10000 | 0.1 to 100 |  | > 10000 | > 10000 | Cn1cc(-c2cc(-c3ccc(NS(C)(=O)=O)nc3)ccn2)n(-c2ccc(N3CCNCC3)c(C(F)(F)F)c2)c1=O [Example A61, N-{2′-[1-Methyl-2-oxo-3-(4-piperazin-1-yl-3-trifluoromethylphenyl)-2,3-dihydro-1H-imidazol-4-yl]-[3,4′]bipyridinyl-6-yl}methanesulfonamide] |
| 0.1 to 100 | 0.1 to 100 | 0.1 to 100 | 0.1 to 100 | 100 to 10000 | 100 to 10000 | Cn1cc(-c2cc(-c3cnc4[nH]ncc4c3)ccn2)n(-c2cccc(C#N)c2)c1=O [Example A63, 3-{3-Methyl-2-oxo-5-[4-(1H-pyrazolo[3,4-b]pyridin-5-yl)pyridin-2-yl]-2,3-dihydro-imidazol-1-yl}benzonitrile] |
| 100 to 10000 | 100 to 10000 | 0.1 to 100 | 0.1 to 100 | 100 to 10000 | 0.1 to 100 | CC(=O)N1CCN(c2ccc(-n3c(-c4cc(-c5cnc6[nH]ccc6c5)ccn4)cn(C)c3=O)cc2C(F)(F)F)CC1 [Example A72, 3-[4-(4-Acetylpiperazin-1-yl)-3-trifluoromethylphenyl]-1-methyl-4-[4-(1H-pyrrolo[2,3-b]pyridin-5-yl)pyridin-2-yl]-1,3-dihydroimidazol-2-one] |
| 0.1 to 100 | 100 to 10000 | 0.1 to 100 | 0.1 to 100 | 100 to 10000 | 100 to 10000 | COc1cccc(-n2c(-c3cc(-c4cnc5[nH]ccc5c4)ccn3)cn(C)c2=O)c1 [Example A73, 3-(3-Methoxyphenyl)-1-methyl-4-[4-(1H-pyrrolo[2,3-b]pyridin-5-yl)pyridin-2-yl]-1,3-dihydroimidazol-2-one] |
| 0.1 to 100 | 100 to 10000 | 0.1 to 100 |  | 100 to 10000 | 0.1 to 100 | Cn1cc(-c2cc(-c3cnc4[nH]ccc4c3)ccn2)n(-c2ccc(N3CCN(S(C)(=O)=O)CC3)c(C(F)(F)F)c2)c1=O [Example A74, 3-[4-(4-Methanesulfonylpiperazin-1-yl)-3-trifluoromethylphenyl]-1-methyl-4-[4-(1H-pyrrolo[2,3-b]pyridin-5-yl)pyridin-2-yl]-1,3-dihydroimidazol-2-one] |
| 100 to 10000 | 100 to 10000 | 0.1 to 100 |  | > 10000 | 100 to 10000 | N#Cc1cccc(-n2c(-c3cc(-c4cnc5[nH]ccc5c4)ccn3)cn(C(F)F)c2=O)c1 [Example A75, 3-{3-Difluoromethyl-2-oxo-5-[4-(1H-pyrrolo[2,3-b]pyridin-5-yl)pyridin-2-yl]-2,3-dihydroimidazol-1-yl}benzonitrile] |
| 0.1 to 100 | > 10000 | 0.1 to 100 |  | > 10000 | > 10000 | Cn1cc(-c2cc(-c3cnc4[nH]ccc4c3)ccn2)n(-c2ccccc2OC(F)(F)F)c1=O [Example A76, 1-Methyl-4-[4-(1H-pyrrolo[2,3-b]pyridin-5-yl)pyridin-2-yl]-3-(2-trifluoromethoxy-phenyl)-1,3-dihydroimidazol-2-one] |
| > 10000 | 100 to 10000 | 0.1 to 100 |  | 100 to 10000 | 0.1 to 100 | CCN1CCN(c2ccc(-n3c(-c4cc(-c5cnc6[nH]ccc6c5)ccn4)cn(C)c3=O)cc2C(F)(F)F)CC1 [Example A77, 3-[4-(4-Ethylpiperazin-1-yl)-3-trifluoromethylphenyl]-1-methyl-4-[4-(1H-pyrrolo[2,3-b]pyridin-5-yl)pyridin-2-yl]-1,3-dihydroimidazol-2-one] |
| 100 to 10000 | 100 to 10000 | 0.1 to 100 |  | 100 to 10000 | 100 to 10000 | Cc1cccc(-n2c(-c3cc(-c4cnc5[nH]ccc5c4)ccn3)cn(C)c2=O)c1 [Example A79, 1-Methyl-4-[4-(1H-pyrrolo[2,3-b]pyridin-5-yl)pyridin-2-yl]-3-m-tolyl-1,3-dihydro-imidazol-2-one] |
| > 10000 | 100 to 10000 | 0.1 to 100 |  | 100 to 10000 | 100 to 10000 | CC(C)c1cccc(-n2c(-c3cc(-c4cnc5[nH]ccc5c4)ccn3)cn(C)c2=O)c1 [Example A80, 3-(3-Isopropylphenyl)-1-methyl-4-[4-(1H-pyrrolo[2,3-b]pyridin-5-yl)pyridin-2-yl]-1,3-dihydroimidazol-2-one] |
